# Laboratory results as given in patent US8309769B2, “Crystalline forms of 2-[2-chloro-4-methylsulfony1-3-(2,2,2-trifluoroethoxymethyl)benzoyl]cyclohexan-1,3-dione” (BASF SE, priority 2007, dated 2012).
# Format: physicochemical
# Description: The form in question or mixtures of different forms of tembotrione were suspended in a mixture of methanol with water (volume ratio methanol:water 1:9) at temperatures in the range from 10 to 30° C., and the temperature varied cyclically at a rate of 0.33 K min^−1.
compound,measurement,value
"CS(=O)(=O)c1ccc(C(=O)C2C(=O)CCCC2=O)c(Cl)c1COCC(F)(F)F [form A, 2-[2-chloro-4-methylsulfonyl-3-(2,2,2-trifluoro-ethoxymethyl)benzoyl]cyclohexan-1,3-dione]",stability against phase change: modification found after 8 days,unchanged
"CS(=O)(=O)c1ccc(C(=O)C2C(=O)CCCC2=O)c(Cl)c1COCC(F)(F)F [mixture of forms A, B and C, 2-[2-chloro-4-methylsulfonyl-3-(2,2,2-trifluoro-ethoxymethyl)benzoyl]cyclohexan-1,3-dione]",stability against phase change: modification found after 2 days,converted into form A
"CS(=O)(=O)c1ccc(C(=O)C2C(=O)CCCC2=O)c(Cl)c1COCC(F)(F)F [form B, 2-[2-chloro-4-methylsulfonyl-3-(2,2,2-trifluoro-ethoxymethyl)benzoyl]cyclohexan-1,3-dione]",stability against phase change: modification found after 3 days,converted completely into modification C
